Consider four molecules from the kinase profiling compilation of Christmann-Franck et al. (2016).

Each structure is given as a SMILES string.

CDK2 CCNA2 (human), sequence (P20248 whole entry, looked up, other chains not shown): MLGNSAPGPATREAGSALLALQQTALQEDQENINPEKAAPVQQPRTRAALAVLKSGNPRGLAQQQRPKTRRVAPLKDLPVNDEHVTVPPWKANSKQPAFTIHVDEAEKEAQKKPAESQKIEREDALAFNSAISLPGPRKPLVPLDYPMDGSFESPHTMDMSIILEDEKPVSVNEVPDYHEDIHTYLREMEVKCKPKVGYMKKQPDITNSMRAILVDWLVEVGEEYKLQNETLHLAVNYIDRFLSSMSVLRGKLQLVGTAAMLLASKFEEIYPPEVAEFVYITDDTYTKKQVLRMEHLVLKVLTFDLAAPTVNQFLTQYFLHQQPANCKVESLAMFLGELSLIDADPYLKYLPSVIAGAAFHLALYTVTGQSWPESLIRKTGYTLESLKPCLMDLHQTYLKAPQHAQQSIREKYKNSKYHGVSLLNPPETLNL
RPS6KA3 KD1 KD2 (human), sequence (P51812 whole entry, looked up): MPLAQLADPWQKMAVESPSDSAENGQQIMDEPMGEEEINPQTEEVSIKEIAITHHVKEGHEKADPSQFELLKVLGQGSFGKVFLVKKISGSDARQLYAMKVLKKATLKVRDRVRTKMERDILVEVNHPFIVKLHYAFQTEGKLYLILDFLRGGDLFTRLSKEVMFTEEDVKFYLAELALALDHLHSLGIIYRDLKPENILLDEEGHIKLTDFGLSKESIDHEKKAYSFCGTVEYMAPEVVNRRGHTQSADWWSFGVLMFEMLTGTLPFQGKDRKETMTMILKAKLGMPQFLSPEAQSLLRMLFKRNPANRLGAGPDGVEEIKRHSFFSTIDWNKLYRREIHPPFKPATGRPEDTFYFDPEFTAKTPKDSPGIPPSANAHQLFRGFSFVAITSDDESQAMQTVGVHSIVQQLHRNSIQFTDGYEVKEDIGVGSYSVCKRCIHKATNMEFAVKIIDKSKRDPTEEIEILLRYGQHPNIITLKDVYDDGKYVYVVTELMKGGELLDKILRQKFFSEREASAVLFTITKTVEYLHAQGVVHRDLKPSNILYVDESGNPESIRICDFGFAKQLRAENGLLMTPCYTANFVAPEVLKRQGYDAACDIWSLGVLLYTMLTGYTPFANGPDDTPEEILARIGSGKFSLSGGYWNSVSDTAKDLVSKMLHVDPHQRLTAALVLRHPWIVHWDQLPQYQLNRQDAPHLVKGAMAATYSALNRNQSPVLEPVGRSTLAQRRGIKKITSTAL
NEK9 (human), sequence (Q8TD19 whole entry, looked up): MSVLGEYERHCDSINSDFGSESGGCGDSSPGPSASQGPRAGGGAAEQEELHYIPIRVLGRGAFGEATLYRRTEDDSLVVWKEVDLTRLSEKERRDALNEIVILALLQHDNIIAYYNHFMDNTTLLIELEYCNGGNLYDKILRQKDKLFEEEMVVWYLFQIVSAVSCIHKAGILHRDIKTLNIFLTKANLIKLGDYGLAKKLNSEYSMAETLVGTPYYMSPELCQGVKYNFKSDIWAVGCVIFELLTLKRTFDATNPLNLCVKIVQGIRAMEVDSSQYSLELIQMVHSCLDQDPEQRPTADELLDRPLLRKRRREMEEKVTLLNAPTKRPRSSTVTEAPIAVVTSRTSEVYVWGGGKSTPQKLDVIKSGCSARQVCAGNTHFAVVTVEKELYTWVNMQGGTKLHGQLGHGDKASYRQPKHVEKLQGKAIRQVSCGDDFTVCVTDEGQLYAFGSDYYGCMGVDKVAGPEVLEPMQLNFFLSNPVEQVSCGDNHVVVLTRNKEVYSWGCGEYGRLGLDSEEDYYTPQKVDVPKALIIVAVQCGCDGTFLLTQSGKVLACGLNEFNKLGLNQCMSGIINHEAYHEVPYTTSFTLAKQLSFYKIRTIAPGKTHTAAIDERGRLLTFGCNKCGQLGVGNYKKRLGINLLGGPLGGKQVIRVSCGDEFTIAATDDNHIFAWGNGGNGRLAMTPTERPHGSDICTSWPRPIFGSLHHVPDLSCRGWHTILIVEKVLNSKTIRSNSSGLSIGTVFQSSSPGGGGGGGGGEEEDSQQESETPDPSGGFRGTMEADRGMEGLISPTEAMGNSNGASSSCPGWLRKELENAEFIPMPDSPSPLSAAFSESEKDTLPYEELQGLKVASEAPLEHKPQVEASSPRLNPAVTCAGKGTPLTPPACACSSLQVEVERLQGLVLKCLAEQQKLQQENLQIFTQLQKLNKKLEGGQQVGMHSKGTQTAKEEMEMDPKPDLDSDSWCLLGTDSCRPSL
DMPK (human), sequence (Q09013 whole entry, looked up): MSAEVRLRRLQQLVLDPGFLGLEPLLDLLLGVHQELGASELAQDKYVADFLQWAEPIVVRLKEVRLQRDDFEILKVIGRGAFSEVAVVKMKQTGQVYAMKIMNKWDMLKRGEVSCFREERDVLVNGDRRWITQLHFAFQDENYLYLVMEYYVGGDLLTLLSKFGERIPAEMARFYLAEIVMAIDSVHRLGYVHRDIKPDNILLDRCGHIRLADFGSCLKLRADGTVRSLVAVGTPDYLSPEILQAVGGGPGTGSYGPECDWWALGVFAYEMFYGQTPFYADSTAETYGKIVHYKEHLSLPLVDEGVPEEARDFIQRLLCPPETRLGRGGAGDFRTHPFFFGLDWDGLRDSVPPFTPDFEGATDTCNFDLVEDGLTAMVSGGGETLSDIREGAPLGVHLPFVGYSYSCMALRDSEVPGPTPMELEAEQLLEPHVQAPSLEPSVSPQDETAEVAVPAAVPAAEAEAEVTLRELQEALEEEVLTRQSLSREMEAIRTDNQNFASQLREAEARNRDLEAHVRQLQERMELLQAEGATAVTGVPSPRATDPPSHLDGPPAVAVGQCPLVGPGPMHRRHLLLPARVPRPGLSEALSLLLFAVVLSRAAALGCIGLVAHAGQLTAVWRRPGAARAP
PLK2 (human), sequence (Q9NYY3 whole entry, looked up): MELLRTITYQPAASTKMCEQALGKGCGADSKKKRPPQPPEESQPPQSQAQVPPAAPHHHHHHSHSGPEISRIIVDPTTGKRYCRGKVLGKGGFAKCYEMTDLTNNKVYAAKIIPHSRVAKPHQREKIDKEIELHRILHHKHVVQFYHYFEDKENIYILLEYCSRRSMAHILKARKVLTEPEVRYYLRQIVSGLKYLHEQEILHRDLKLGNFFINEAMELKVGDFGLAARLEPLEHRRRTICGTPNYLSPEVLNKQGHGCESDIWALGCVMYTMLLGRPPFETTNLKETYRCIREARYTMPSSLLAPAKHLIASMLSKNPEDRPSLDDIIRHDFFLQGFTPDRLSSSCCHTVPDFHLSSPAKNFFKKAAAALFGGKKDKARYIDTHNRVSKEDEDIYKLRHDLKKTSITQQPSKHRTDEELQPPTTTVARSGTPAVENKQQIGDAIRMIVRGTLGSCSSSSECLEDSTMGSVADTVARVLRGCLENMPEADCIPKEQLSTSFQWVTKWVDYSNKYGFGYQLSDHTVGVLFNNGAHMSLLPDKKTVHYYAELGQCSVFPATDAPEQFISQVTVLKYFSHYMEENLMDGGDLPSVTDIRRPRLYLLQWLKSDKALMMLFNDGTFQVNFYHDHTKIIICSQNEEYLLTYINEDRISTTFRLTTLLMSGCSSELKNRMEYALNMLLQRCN

The first assay addresses CAMK1D (human) (UniProt Q8IU85). Nature of the assay: radiometric filter-binding kinase assay, Kinase HotSpot. Conditions: compound 0.5 µM; ATP 10 µM.
Turning to `Cn1sc(=O)n(Cc2ccccc2)c1=O`, the residual activity is 97.1%.

On to `CC(C)c1nn(-c2c(Cl)cccc2Cl)c2nc(Cc3ccc(OCCO)cc3)nc(O)c12`, for which the residual activity stood at 102%.

The next assay has as its target MAP3K2 (human) (UniProt Q9Y2U5). Described as above. Conditions: compound 0.5 µM; ATP 10 µM.
As for `O=C1Nc2ccccc2/C1=C1/Nc2ccccc2/C1=N\OCCC(O)CO` (stereo not drawn), the residual activity was 60.6%.

As to `COc1ccc(CNC(=O)Nc2ncc([N+](=O)[O-])s2)cc1`, the residual activity worked out at 94.1%.

`Cn1sc(=O)n(Cc2ccccc2)c1=O`: the residual activity came to 94.7%.

As for `CC(C)c1nn(-c2c(Cl)cccc2Cl)c2nc(Cc3ccc(OCCO)cc3)nc(O)c12`, the residual activity turned out to be 94.7%.

The next assay addresses CLK2 (human) (UniProt P49760). The assay is described as above. Conditions: compound 0.5 µM; ATP 10 µM.
With `O=C1Nc2ccccc2/C1=C1/Nc2ccccc2/C1=N\OCCC(O)CO` (stereo not drawn), the residual activity amounted to 92%.

`COc1ccc(CNC(=O)Nc2ncc([N+](=O)[O-])s2)cc1`: the residual activity came to 97.4%.

On to `Cn1sc(=O)n(Cc2ccccc2)c1=O`, for which the residual activity was 98.5%.

Consider `CC(C)c1nn(-c2c(Cl)cccc2Cl)c2nc(Cc3ccc(OCCO)cc3)nc(O)c12`, for which the residual activity amounted to 44%.

Another assay addresses PRKCH (human) (UniProt P24723). Described as above. The note with it: compound 0.5 µM; ATP 10 µM.
As for `O=C1Nc2ccccc2/C1=C1/Nc2ccccc2/C1=N\OCCC(O)CO` (stereo not drawn), the residual activity stood at 82.2%.

For `COc1ccc(CNC(=O)Nc2ncc([N+](=O)[O-])s2)cc1`, the residual activity amounted to 64.1%.

Turning to `Cn1sc(=O)n(Cc2ccccc2)c1=O`, the residual activity is 89%.

`CC(C)c1nn(-c2c(Cl)cccc2Cl)c2nc(Cc3ccc(OCCO)cc3)nc(O)c12`: the residual activity came out at 87.4%.

The next assay addresses DMPK (human) (UniProt Q09013). The description is as above. Conditions: compound 0.5 µM; ATP 10 µM.
As to `O=C1Nc2ccccc2/C1=C1/Nc2ccccc2/C1=N\OCCC(O)CO` (stereo not drawn), the residual activity worked out at 99.5%.

For `COc1ccc(CNC(=O)Nc2ncc([N+](=O)[O-])s2)cc1`, the residual activity is 101%.

As to `Cn1sc(=O)n(Cc2ccccc2)c1=O`, the residual activity was 100%.

With `CC(C)c1nn(-c2c(Cl)cccc2Cl)c2nc(Cc3ccc(OCCO)cc3)nc(O)c12`, the residual activity came to 99.3%.

A further assay addresses NEK9 (human) (UniProt Q8TD19). The assay is described as above. Conditions: compound 0.5 µM; ATP 10 µM.
Regarding `O=C1Nc2ccccc2/C1=C1/Nc2ccccc2/C1=N\OCCC(O)CO` (stereo not drawn), the residual activity amounted to 73.6%.

`COc1ccc(CNC(=O)Nc2ncc([N+](=O)[O-])s2)cc1`: the residual activity was 89.4%.

Take `Cn1sc(=O)n(Cc2ccccc2)c1=O`: the residual activity came out at 98.2%.

With `CC(C)c1nn(-c2c(Cl)cccc2Cl)c2nc(Cc3ccc(OCCO)cc3)nc(O)c12`, the residual activity worked out at 97.3%.

A further assay deals with FGFR2 (human) (UniProt P21802). The assay is described as above. Conditions: compound 0.5 µM; ATP 10 µM.
Regarding `O=C1Nc2ccccc2/C1=C1/Nc2ccccc2/C1=N\OCCC(O)CO` (stereo not drawn), the residual activity came to 76%.

Consider `COc1ccc(CNC(=O)Nc2ncc([N+](=O)[O-])s2)cc1`, for which the residual activity turned out to be 97.4%.

For `CC(C)c1nn(-c2c(Cl)cccc2Cl)c2nc(Cc3ccc(OCCO)cc3)nc(O)c12`, the residual activity was found to be 97.5%.

For the next assay, the target named is MAP3K14 (human) (UniProt Q99558). The description is as above. The note with it: compound 0.5 µM; ATP 10 µM.
MAP3K14 (human), sequence (Q99558 whole entry, looked up): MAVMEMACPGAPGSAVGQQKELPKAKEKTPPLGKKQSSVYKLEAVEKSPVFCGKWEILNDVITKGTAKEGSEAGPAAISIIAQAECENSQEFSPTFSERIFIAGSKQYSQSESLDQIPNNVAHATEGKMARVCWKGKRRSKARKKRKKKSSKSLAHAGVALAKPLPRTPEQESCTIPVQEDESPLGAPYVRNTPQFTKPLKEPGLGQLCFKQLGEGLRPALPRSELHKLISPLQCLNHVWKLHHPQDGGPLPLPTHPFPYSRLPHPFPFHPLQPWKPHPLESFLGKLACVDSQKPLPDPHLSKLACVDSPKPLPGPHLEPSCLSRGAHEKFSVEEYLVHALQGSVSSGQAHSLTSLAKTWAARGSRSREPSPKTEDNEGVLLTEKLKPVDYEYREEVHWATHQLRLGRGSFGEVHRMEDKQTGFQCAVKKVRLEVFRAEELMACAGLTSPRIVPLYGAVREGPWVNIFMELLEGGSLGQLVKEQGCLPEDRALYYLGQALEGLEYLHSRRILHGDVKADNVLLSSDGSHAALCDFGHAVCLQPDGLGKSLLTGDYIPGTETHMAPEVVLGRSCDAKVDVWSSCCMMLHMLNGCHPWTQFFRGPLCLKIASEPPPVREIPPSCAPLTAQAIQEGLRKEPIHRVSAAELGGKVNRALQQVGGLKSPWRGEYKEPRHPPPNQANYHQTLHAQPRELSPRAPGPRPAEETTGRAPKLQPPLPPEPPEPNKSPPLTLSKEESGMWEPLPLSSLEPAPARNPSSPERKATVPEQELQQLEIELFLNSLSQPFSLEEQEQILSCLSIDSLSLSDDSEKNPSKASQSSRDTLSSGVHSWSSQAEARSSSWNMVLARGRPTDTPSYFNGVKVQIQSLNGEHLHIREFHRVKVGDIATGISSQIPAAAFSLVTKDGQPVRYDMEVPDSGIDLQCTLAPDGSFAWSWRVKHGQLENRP
`O=C1Nc2ccccc2/C1=C1/Nc2ccccc2/C1=N\OCCC(O)CO` (stereo not drawn): the residual activity turned out to be 89%.

On to `COc1ccc(CNC(=O)Nc2ncc([N+](=O)[O-])s2)cc1`, for which the residual activity is 84.2%.

Consider `Cn1sc(=O)n(Cc2ccccc2)c1=O`, for which the residual activity is 81.6%.

`CC(C)c1nn(-c2c(Cl)cccc2Cl)c2nc(Cc3ccc(OCCO)cc3)nc(O)c12`: the residual activity was 97.3%.

The next assay addresses ACVR1B (human) (UniProt P36896). The description is as above. Conditions: compound 0.5 µM; ATP 10 µM.
As for `O=C1Nc2ccccc2/C1=C1/Nc2ccccc2/C1=N\OCCC(O)CO` (stereo not drawn), the residual activity was 110%.

For the molecule `COc1ccc(CNC(=O)Nc2ncc([N+](=O)[O-])s2)cc1`, the residual activity is 102%.

For the molecule `Cn1sc(=O)n(Cc2ccccc2)c1=O`, the residual activity was found to be 103%.

Turning to `CC(C)c1nn(-c2c(Cl)cccc2Cl)c2nc(Cc3ccc(OCCO)cc3)nc(O)c12`, the residual activity worked out at 109%.

Another assay deals with CLK4 (human) (UniProt Q9HAZ1). The description is as above. The note with it: compound 0.5 µM; ATP 10 µM.
CLK4 (human), sequence (Q9HAZ1 whole entry, looked up): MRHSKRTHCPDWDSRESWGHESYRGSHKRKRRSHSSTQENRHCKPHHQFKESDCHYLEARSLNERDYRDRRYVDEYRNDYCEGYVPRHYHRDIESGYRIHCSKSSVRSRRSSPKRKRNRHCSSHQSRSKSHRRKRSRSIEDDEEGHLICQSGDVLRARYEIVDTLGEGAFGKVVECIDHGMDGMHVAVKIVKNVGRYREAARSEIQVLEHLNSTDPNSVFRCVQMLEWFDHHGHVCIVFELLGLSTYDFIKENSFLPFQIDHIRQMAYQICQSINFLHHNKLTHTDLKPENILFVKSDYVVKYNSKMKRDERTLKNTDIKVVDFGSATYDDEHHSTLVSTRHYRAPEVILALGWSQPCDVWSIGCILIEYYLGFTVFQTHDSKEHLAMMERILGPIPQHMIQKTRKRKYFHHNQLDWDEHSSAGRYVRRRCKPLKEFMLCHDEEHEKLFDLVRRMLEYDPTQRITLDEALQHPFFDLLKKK
As to `O=C1Nc2ccccc2/C1=C1/Nc2ccccc2/C1=N\OCCC(O)CO` (stereo not drawn), the residual activity stood at 6.19%.

As for `COc1ccc(CNC(=O)Nc2ncc([N+](=O)[O-])s2)cc1`, the residual activity came to 92.8%.

Take `Cn1sc(=O)n(Cc2ccccc2)c1=O`: the residual activity amounted to 99.1%.

For the molecule `CC(C)c1nn(-c2c(Cl)cccc2Cl)c2nc(Cc3ccc(OCCO)cc3)nc(O)c12`, the residual activity came to 81.2%.

A further assay has as its target GSG2 (human) (UniProt Q8TF76). The description is as above. The note with it: compound 0.5 µM; ATP 10 µM.
Turning to `O=C1Nc2ccccc2/C1=C1/Nc2ccccc2/C1=N\OCCC(O)CO` (stereo not drawn), the residual activity stood at 32.8%.

As to `COc1ccc(CNC(=O)Nc2ncc([N+](=O)[O-])s2)cc1`, the residual activity turned out to be 90%.

On to `Cn1sc(=O)n(Cc2ccccc2)c1=O`, for which the residual activity turned out to be 99%.

With `CC(C)c1nn(-c2c(Cl)cccc2Cl)c2nc(Cc3ccc(OCCO)cc3)nc(O)c12`, the residual activity was 94.3%.

For the next assay, the target named is CSNK1G2 (human) (UniProt P78368). The assay is described as above. The note with it: compound 0.5 µM; ATP 10 µM.
For the molecule `O=C1Nc2ccccc2/C1=C1/Nc2ccccc2/C1=N\OCCC(O)CO` (stereo not drawn), the residual activity is 85.2%.

As for `COc1ccc(CNC(=O)Nc2ncc([N+](=O)[O-])s2)cc1`, the residual activity was determined as 100%.

In the case of `Cn1sc(=O)n(Cc2ccccc2)c1=O`, the residual activity turned out to be 95%.

For the molecule `CC(C)c1nn(-c2c(Cl)cccc2Cl)c2nc(Cc3ccc(OCCO)cc3)nc(O)c12`, the residual activity turned out to be 95.7%.

The next assay addresses RPS6KA3 KD1 KD2 (human) (UniProt P51812). Described as above. The note with it: compound 0.5 µM; ATP 10 µM.
Consider `O=C1Nc2ccccc2/C1=C1/Nc2ccccc2/C1=N\OCCC(O)CO` (stereo not drawn), for which the residual activity is 18.3%.

Consider `Cn1sc(=O)n(Cc2ccccc2)c1=O`, for which the residual activity is 97.5%.

Take `CC(C)c1nn(-c2c(Cl)cccc2Cl)c2nc(Cc3ccc(OCCO)cc3)nc(O)c12`: the residual activity turned out to be 88.4%.

Another assay concerns the target CDK2 CCNA2 (human) (UniProt P24941+P20248). The assay is described as above. The note with it: compound 0.5 µM; ATP 10 µM.
On to `O=C1Nc2ccccc2/C1=C1/Nc2ccccc2/C1=N\OCCC(O)CO` (stereo not drawn), for which the residual activity is 15.5%.

As to `COc1ccc(CNC(=O)Nc2ncc([N+](=O)[O-])s2)cc1`, the residual activity is 93.3%.

`Cn1sc(=O)n(Cc2ccccc2)c1=O`: the residual activity was determined as 100%.

As to `CC(C)c1nn(-c2c(Cl)cccc2Cl)c2nc(Cc3ccc(OCCO)cc3)nc(O)c12`, the residual activity came out at 1.96%.

A further assay concerns the target FGFR3 (human) (UniProt P22607). The description is as above. The note with it: compound 0.5 µM; ATP 10 µM.
For `O=C1Nc2ccccc2/C1=C1/Nc2ccccc2/C1=N\OCCC(O)CO` (stereo not drawn), the residual activity was determined as 45.8%.

Take `COc1ccc(CNC(=O)Nc2ncc([N+](=O)[O-])s2)cc1`: the residual activity was determined as 108%.

In the case of `Cn1sc(=O)n(Cc2ccccc2)c1=O`, the residual activity came out at 100%.

Turning to `CC(C)c1nn(-c2c(Cl)cccc2Cl)c2nc(Cc3ccc(OCCO)cc3)nc(O)c12`, the residual activity amounted to 97%.

The target of a further assay is RIPK2 (human) (UniProt O43353). The description is as above. The note with it: compound 0.5 µM; ATP 10 µM.
Take `O=C1Nc2ccccc2/C1=C1/Nc2ccccc2/C1=N\OCCC(O)CO` (stereo not drawn): the residual activity amounted to 62.8%.

For `COc1ccc(CNC(=O)Nc2ncc([N+](=O)[O-])s2)cc1`, the residual activity amounted to 82.8%.

Regarding `Cn1sc(=O)n(Cc2ccccc2)c1=O`, the residual activity came out at 85.4%.

`CC(C)c1nn(-c2c(Cl)cccc2Cl)c2nc(Cc3ccc(OCCO)cc3)nc(O)c12`: the residual activity came out at 89.3%.

For the next assay, the target named is FER (human) (UniProt P16591). The description is as above. The note with it: compound 0.5 µM; ATP 10 µM.
With `O=C1Nc2ccccc2/C1=C1/Nc2ccccc2/C1=N\OCCC(O)CO` (stereo not drawn), the residual activity stood at 28.8%.

As for `COc1ccc(CNC(=O)Nc2ncc([N+](=O)[O-])s2)cc1`, the residual activity was found to be 101%.

As to `Cn1sc(=O)n(Cc2ccccc2)c1=O`, the residual activity amounted to 101%.

On to `CC(C)c1nn(-c2c(Cl)cccc2Cl)c2nc(Cc3ccc(OCCO)cc3)nc(O)c12`, for which the residual activity turned out to be 89.4%.

A further assay has as its target PLK2 (human) (UniProt Q9NYY3). The description is as above. The note with it: compound 0.5 µM; ATP 10 µM.
Take `O=C1Nc2ccccc2/C1=C1/Nc2ccccc2/C1=N\OCCC(O)CO` (stereo not drawn): the residual activity turned out to be 105%.

For `COc1ccc(CNC(=O)Nc2ncc([N+](=O)[O-])s2)cc1`, the residual activity was determined as 104%.

In the case of `Cn1sc(=O)n(Cc2ccccc2)c1=O`, the residual activity is 106%.

Consider `CC(C)c1nn(-c2c(Cl)cccc2Cl)c2nc(Cc3ccc(OCCO)cc3)nc(O)c12`, for which the residual activity worked out at 99.8%.
